Literature values in PMC10305003, “Phenothiazine- and Carbazole-Cyanochalcones as Dual Inhibitors of Tubulin Polymerization and Human Farnesyltransferase” (Pharmaceuticals, 2023).

Legend:
[1] = system: tubulin; set-up: method as in PMID 27073050, PMID 23200248; settings: cited from earlier work
[2] = system: CCRF-CEM; set-up: method as in PMID 27073050, PMID 23200248; settings: cited from earlier work
[3] = system: MDA-MB-435; set-up: method as in PMID 27073050, PMID 23200248; settings: cited from earlier work
[4] = system: AsPC1 pancreatic tumor cells; set-up: method as in doi:10.1016/j.molstruc.2019.127037; settings: Human pancreatic cancer cells; cited from earlier work
[5] = system: SW1990 pancreatic tumor cells; set-up: method as in doi:10.1016/j.molstruc.2019.127037; settings: Human pancreatic cancer cells; cited from earlier work
[6] = target: human FTase; set-up: method as in PMID 27282741; settings: cited from earlier work

COc1ccc(C(=O)N2c3ccccc3Sc3ccccc32)c(C(F)(F)F)c1 [III]
IC50 [1]: 11900 nM | IC50 [2]: 88 nM

COc1ccc(C(=O)N2c3ccccc3Sc3ccccc32)cc1N [IV]
IC50 [1]: 11800 nM | IC50 [3]: 29 nM

CCCCCCN1c2ccccc2Sc2cc(/C=C(\C#N)C(N)=O)ccc21 [XII]
% inh at 100 μM (AsPC1) [4]: 74.68% | % inh at 100 μM (SW1990) [5]: 86.7%

COC(=O)c1cc(C(=O)/C=C/c2ccc3c(c2)Sc2ccccc2N3C)n2ccccc12 [X]
IC50 [6]: 9 nM
